Experimental data taken from US12139472B2, “Inhibitors of advanced glycation end products” (priority 2019, dated 2024).

Assays:
[1] = Preparation of dosing solutions in 0.5% methyl cellulose and 0.1% Tween 20 in water; format: physicochemical; details: 0.5% methyl cellulose
Experimental: Compound 5 (PTG-630 free base) and Compound 19 (PTG-630 HCl salt) solutions were prepared in 0.5% methyl cellulose and 0.1% Tween 20 in water for administration to animals by oral gavage (PO).
Compound 5 was administered at 10 mg/kg and 100 mg/kg. […] The solution was vortexed vigorously for minutes and then sonicated in a water bath for 5 min. The solution remained as a thick creamy yellowish suspension at pH 8. The solution for the 10 mg/kg free base dose (2 mg/ml solution) was easier to prepare. […] The final solution that was administered was a clear, light yellowish solution with few small particulates in suspension.
Compound 19 was administered at 10 mg/kg. […] The solution (2 mg/ml) was clear yellowish (although lighter than the Compound 5 solution at 2 mg/ml) with no particulates in suspension. The pH decreased to 3.

[2] = molecular target: T1, CYP1A (Homo sapiens, UniProt P05177); assay: CYP1A inhibition (HLM) phenacetin; format: in vitro ADME
T1 construct: Two studies were conducted in human liver microsomes (HLM); tissue Eurofins G232 panel; host or cells: human liver microsomes
T1 sequence (P05177 1-516): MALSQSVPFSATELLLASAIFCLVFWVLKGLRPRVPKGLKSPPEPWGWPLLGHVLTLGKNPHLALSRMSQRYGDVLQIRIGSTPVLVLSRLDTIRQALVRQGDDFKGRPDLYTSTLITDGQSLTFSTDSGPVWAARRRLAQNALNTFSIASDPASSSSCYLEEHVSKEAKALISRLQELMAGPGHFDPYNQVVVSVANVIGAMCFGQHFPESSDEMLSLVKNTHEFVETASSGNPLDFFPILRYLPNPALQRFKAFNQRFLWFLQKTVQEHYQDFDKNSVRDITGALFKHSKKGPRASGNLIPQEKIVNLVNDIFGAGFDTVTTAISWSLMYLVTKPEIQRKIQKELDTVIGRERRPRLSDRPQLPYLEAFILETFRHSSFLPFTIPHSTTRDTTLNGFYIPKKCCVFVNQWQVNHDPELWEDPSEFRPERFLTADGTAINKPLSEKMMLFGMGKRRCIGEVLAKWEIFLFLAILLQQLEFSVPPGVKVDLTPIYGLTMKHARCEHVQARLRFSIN
Experimental: (§1) Compound 5 (PTG-630 free base) and 7 additional compounds for CYP3A P450 inhibition.
(§2) Two studies were conducted in human liver microsomes (HLM). Lead candidate PTG-630 was tested using the Eurofins G232 panel (Drug Metab Dispos. 2001 January; 29(1):23-9), where inhibition was measured against seven CYP enzymes; CYP3A4 was tested using two different substrates, midazolam and testosterone. In a second study, inhibition of CYP3A4 (midazolam substrate only) was compared for 8 compounds of interest. The test protocol involved one-point measurements in duplicate, where inhibition was measured at a fixed 10 μM concentration of candidate inhibitors. In all cases, the substrate for each CYP enzyme was at a concentration equal to its specific Km value that was independently obtained from an 8-point dose-response study. Based on the observed value for percent inhibition for each test compound, we calculated of an IC50 assuming a competitive mode of inhibition. If percent inhibition for an inhibitor at a concentration of [I] is denoted by P, then: IC50=[I]*(100−P)/P In the single-point assay, [I] is 10 μM. If measured inhibition is 10%, then IC50=10*(100-10)/10=90 μM. […] As discussed in Lin et al. (J Pharm Sci. 2007 September; 96(9):2485-93; doi: 10.1002/jps.20884), CYP inhibition is broadly interpreted as being “potent” if IC50<1 μM, “moderate” if 1 μM<IC50<10 μM, and “weak” if IC50>10 μM.

[3] = molecular target: T2, CYP2B6 (Homo sapiens, UniProt P20813); format: in vitro ADME; details: microsomes
T2 construct: Two studies were conducted in human liver microsomes (HLM); tissue Eurofins G232 panel; host or cells: human liver microsomes
T2 sequence (P20813 1-491): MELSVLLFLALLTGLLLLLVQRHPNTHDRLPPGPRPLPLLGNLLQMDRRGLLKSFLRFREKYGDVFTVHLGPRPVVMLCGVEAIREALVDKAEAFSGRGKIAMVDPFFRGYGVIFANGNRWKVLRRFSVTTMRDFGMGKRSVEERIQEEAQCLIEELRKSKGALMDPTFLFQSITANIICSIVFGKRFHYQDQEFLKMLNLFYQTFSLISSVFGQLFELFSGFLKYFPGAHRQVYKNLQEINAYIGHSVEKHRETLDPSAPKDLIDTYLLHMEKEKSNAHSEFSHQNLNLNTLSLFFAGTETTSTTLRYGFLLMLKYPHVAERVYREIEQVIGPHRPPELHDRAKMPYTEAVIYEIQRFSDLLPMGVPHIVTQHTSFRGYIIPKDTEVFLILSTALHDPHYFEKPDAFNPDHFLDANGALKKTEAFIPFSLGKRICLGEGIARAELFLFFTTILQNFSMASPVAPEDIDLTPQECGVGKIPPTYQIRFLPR
Experimental: as §1, §2

[4] = molecular target: T3, CYP2C8 (Homo sapiens, UniProt P10632); format: in vitro ADME; details: microsomes
T3 construct: Two studies were conducted in human liver microsomes (HLM); tissue Eurofins G232 panel; host or cells: human liver microsomes
T3 sequence (P10632 1-490): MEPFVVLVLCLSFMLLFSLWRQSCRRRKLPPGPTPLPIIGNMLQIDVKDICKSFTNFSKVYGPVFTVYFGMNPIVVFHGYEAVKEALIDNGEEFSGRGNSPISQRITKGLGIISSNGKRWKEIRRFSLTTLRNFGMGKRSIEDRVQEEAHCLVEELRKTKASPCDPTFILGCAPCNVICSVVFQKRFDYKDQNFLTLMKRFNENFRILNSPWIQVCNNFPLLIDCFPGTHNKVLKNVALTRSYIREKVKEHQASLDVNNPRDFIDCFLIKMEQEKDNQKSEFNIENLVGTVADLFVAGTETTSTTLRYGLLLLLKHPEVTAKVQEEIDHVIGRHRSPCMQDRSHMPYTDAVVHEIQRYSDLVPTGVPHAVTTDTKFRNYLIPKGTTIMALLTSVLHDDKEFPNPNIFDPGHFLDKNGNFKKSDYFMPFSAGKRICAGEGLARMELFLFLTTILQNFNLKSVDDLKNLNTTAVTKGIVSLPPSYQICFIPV
Experimental: as §1, §2

[5] = molecular target: T4, CYP2C9 (Homo sapiens, UniProt P11712); assay: CYP2C9 inhibition (HLM), diclofenac; format: in vitro ADME
T4 construct: Two studies were conducted in human liver microsomes (HLM); tissue Eurofins G232 panel; host or cells: human liver microsomes
Experimental: as §1, §2

[6] = test system: seven CYP enzymes; assay: Eurofins G232 panel, CYP inhibition in human liver microsomes; format: in vitro ADME; details: HLM, 10 μM
Experimental: as §2

T4 sequence (P11712 whole entry): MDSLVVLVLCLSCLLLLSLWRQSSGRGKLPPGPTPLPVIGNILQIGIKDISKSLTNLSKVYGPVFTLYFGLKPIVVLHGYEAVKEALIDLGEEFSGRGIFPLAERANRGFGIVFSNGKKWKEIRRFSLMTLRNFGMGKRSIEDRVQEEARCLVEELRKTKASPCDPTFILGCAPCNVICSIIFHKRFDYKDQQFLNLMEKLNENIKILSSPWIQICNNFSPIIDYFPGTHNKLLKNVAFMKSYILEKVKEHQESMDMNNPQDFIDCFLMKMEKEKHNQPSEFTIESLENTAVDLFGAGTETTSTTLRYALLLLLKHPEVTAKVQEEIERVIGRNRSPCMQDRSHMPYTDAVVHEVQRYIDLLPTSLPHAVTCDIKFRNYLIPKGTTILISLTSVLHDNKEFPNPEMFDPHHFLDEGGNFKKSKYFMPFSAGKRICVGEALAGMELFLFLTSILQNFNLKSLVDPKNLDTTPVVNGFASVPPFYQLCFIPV

Question: What does the source list for Cc1ncc(CN2CCOCC2)c(-c2ncc[nH]2)c1O [PTG-630]?
Answer: dissolution in vehicle ([1]; 2 mg/ml solution (10 mg/kg dose)): few small particles remained; dissolution in vehicle ([1]; 20 mg/ml solution (100 mg/kg dose)): difficult to dissolve; IC50 ([2]; phenacetin, from one-point % inhibition at 10 μM, IC50=[I]*(100−P)/P, read-out: Estimated IC50): 52.1 µM; P % inhib ([2]; substrate phenacetin at Km, Inhib Conc. 1.0E−05 M): 16.1%; IC50 [3]: 213 µM; P % inhib [3]: 4.5%; IC50 [4]: 37 µM; P % inhib [4]: 21.3%; IC50 ([5]; diclofenac, from one-point % inhibition at 10 μM, IC50=[I]*(100−P)/P, read-out: Estimated IC50): 284 µM; P % inhib ([5]; substrate diclofenac at Km, Inhib Conc. 1.0E−05 M): 3.4%; CYP inhibition (in words) [6]: weak to undetectable
